What was measured:
[1] = refractive index (Na D-line) (dimensionless); xn = mol fraction of the nth substance listed; conditions: 101.3 kPa, Liquid, Standard Abbe refractometry
[2] = xn = mol fraction of the nth substance listed; conditions: 101.3 kPa, Liquid; for viscosity: Falling or rolling sphere viscometry; for speed of sound: Sing-around technique in a fixed-path interferometer; for mass density: Vibrating tube method

CC[n+]1ccc(C)cc1.O=S(=O)([N-]S(=O)(=O)C(F)(F)F)C(F)(F)F + O
Conditions | mass density, [2] [kg/m3] | refractive index, [1] | speed of sound, [2] [m/s] | viscosity, [2] [mPa·s]
298.15 K, x2 = 0.144 | 1479.48 | 1.44235 | 1266.8 | 24.89
298.15 K, x2 = 0.201 | 1476.6 | 1.44165 | 1268.3 | 22.72
298.15 K, x2 = 0.306 | 1469.91 | 1.44005 | 1271.7 | 19.35
303.15 K, x2 = 0.144 | 1474.53 | 1.44089 | 1255.4 | 21.05
303.15 K, x2 = 0.201 | 1471.63 | 1.44016 | 1256.8 | 19.29
303.15 K, x2 = 0.306 | 1464.89 | 1.43866 | 1260.3 | 16.23
308.15 K, x2 = 0.144 | 1469.61 | 1.4394 | 1244.1 | 18.04
308.15 K, x2 = 0.201 | 1466.68 | 1.43875 | 1245.5 | 16.53
308.15 K, x2 = 0.306 | 1459 | 1.43719 | 1249.2 | 13.95
313.15 K, x2 = 0.144 | 1464.69 | 1.43785 | 1232.9 | 15.53
313.15 K, x2 = 0.201 | 1461.75 | 1.43727 | 1234.3 | 14.31
313.15 K, x2 = 0.306 | 1454.92 | 1.4355 | 1238 | 12.19
318.15 K, x2 = 0.144 | 1459.79 | 1.43674 | 1221.8 | 13.59
318.15 K, x2 = 0.201 | 1456.83 | 1.4359 | 1223.2 | 12.58
318.15 K, x2 = 0.306 | 1449.95 | 1.4346 | 1226.8 | 10.74
323.15 K, x2 = 0.144 | 1454.91 | 1.43532 | 1210.9 | 12.03
323.15 K, x2 = 0.201 | 1451.92 | 1.43441 | 1212.2 | 11.15
323.15 K, x2 = 0.306 | 1444.99 | 1.43373 | 1215.7 | 9.52
328.15 K, x2 = 0.144 | 1450.05 | 1.43396 | 1200.1 | 10.7
328.15 K, x2 = 0.201 | 1447.04 | 1.43298 | 1201.3 | 9.939
328.15 K, x2 = 0.306 | 1440.05 | 1.4324 | 1204.7 | 8.473
333.15 K, x2 = 0.144 | 1445.21 | 1.43253 | 1189.4 | 9.576
333.15 K, x2 = 0.201 | 1442.18 | 1.43159 | 1190.6 | 8.902
333.15 K, x2 = 0.306 | 1435.13 | 1.43102 | 1193.9 | 7.583
338.15 K, x2 = 0.144 | 1440.39 | 1.43108 | 1178.7 | 8.598
338.15 K, x2 = 0.201 | 1437.33 | 1.43016 | 1179.9 | 7.999
338.15 K, x2 = 0.306 | 1430.22 | 1.42965 | 1183 | 6.83
343.15 K, x2 = 0.144 | 1435.58 | 1.42964 | 1168.2 | 7.76
343.15 K, x2 = 0.201 | 1432.49 | 1.42874 | 1169.3 | 7.221
343.15 K, x2 = 0.306 | 1425.33 | 1.42828 | 1172.2 | –

CC[n+]1ccccc1.O=S(=O)([N-]S(=O)(=O)C(F)(F)F)C(F)(F)F [1-ethylpyridinium bis[(trifluoromethyl)sulfonyl]imide] + O
Conditions | mass density, [2] [kg/m3] | refractive index, [1] | speed of sound, [2] [m/s] | viscosity, [2] [mPa·s]
298.15 K, x2 = 0.16 | 1526.97 | 1.43876 | 1270.7 | 29.14
298.15 K, x2 = 0.213 | 1523.14 | 1.43815 | 1272.3 | 25.97
298.15 K, x2 = 0.311 | 1515.34 | 1.43705 | 1276 | 22.45
303.15 K, x2 = 0.16 | 1521.95 | 1.4374 | 1259.7 | 24.71
303.15 K, x2 = 0.213 | 1518.1 | 1.43684 | 1261.3 | 22.07
303.15 K, x2 = 0.311 | 1510.26 | 1.43552 | 1265 | 18.74
308.15 K, x2 = 0.16 | 1516.97 | 1.43587 | 1248.8 | 21.3
308.15 K, x2 = 0.213 | 1513.09 | 1.43539 | 1250.4 | 18.95
308.15 K, x2 = 0.311 | 1505.19 | 1.43461 | 1254 | 16.02
313.15 K, x2 = 0.16 | 1512 | 1.4344 | 1238 | 18.53
313.15 K, x2 = 0.213 | 1508.09 | 1.43415 | 1239.6 | 16.4
313.15 K, x2 = 0.311 | 1500.14 | 1.43318 | 1243.2 | 13.8
318.15 K, x2 = 0.16 | 1507.04 | 1.43296 | 1227.4 | 16.21
318.15 K, x2 = 0.213 | 1503.11 | 1.43277 | 1228.9 | 14.34
318.15 K, x2 = 0.311 | 1495.11 | 1.43193 | 1232.4 | 12.1
323.15 K, x2 = 0.16 | 1502.11 | 1.43144 | 1216.9 | 14.16
323.15 K, x2 = 0.213 | 1498.16 | 1.43144 | 1218.3 | 12.71
323.15 K, x2 = 0.311 | 1490.1 | 1.43082 | 1221.8 | 10.71
328.15 K, x2 = 0.16 | 1497.2 | 1.43003 | 1206.4 | 12.5
328.15 K, x2 = 0.213 | 1493.22 | 1.42994 | 1207.8 | 11.35
328.15 K, x2 = 0.311 | 1485.1 | 1.42955 | 1211.2 | 9.547
333.15 K, x2 = 0.16 | 1492.3 | 1.42859 | 1196.1 | 11.14
333.15 K, x2 = 0.213 | 1488.3 | 1.42857 | 1197.4 | 10.18
333.15 K, x2 = 0.311 | 1480.12 | 1.42824 | 1200.7 | 8.555
338.15 K, x2 = 0.16 | 1487.43 | 1.42719 | 1185.9 | 9.991
338.15 K, x2 = 0.213 | 1483.4 | 1.42725 | 1187.1 | 9.164
338.15 K, x2 = 0.311 | 1475.16 | 1.42694 | 1190.3 | 7.709
343.15 K, x2 = 0.16 | 1482.56 | 1.42569 | 1175.7 | 9.019
343.15 K, x2 = 0.213 | 1478.5 | 1.42589 | 1176.9 | 8.282
343.15 K, x2 = 0.311 | 1470.22 | 1.42551 | 1180 | 6.971

Reference: the NIST ThermoML archive (doi:10.1016/j.jct.2015.02.020)
